Experimental data reported in the PolyMetriX glass transition set.
± gives the standard deviation of the reports.

Point of comparison: `*CC(O)CN(*)c1cc(C)c(/N=N/c2ccc([N+](=O)[O-])cc2)c(C)c1` (repeat unit), glass transition temperature 152.00 °C. Against it:
- *Oc1ccc(C(C)(C)c2ccc(OC(=O)c3ccc(C(*)=O)cc3)c(C)c2)cc1C (repeat unit) — higher, 178.50 °C
- *O[Si](*)(CCCOCCOCCOCCOCCOCCOCCOC)CCCOCCOCCOCCOCCOCCOCCOC (repeat unit) — lower, -68.90 °C
- *Oc1cccc(Oc2ccc(C(=O)Oc3cccc(OC(=O)c4ccc(*)cc4)c3)cc2)c1 (repeat unit) — lower, 131.00 °C
- *Oc1ccc(OC(=O)c2cc(OCCCCCCOCC3CCCN3c3ccc([N+](=O)[O-])cc3)c(C(*)=O)cc2OCCCCCCOCC2CCCN2c2ccc([N+](=O)[O-])cc2)cc1 (repeat unit) — lower, 56.00 °C
- *c1cccc(C(O[Si](C)(C)O[Si](C)(C)O[Si](C)(C)C)c2cccc(N3C(=O)c4ccc(Oc5ccc6c(c5)C(=O)N(*)C6=O)cc4C3=O)c2)c1 (repeat unit) — higher, 219.00 °C
- *Cc1ccc(COC(=O)c2cccc(C(=O)O*)c2)cc1 (repeat unit) — lower, 143.00 °C
- *CC(*)C(F)(F)C(F)(F)F (repeat unit) [Poly[(pentafluoroethyl)ethylene] ] — lower, 41 ± 0.6 °C
- *CCCCCCCCCCCC(=O)Oc1ccc(C2(c3ccc(OC(=O)c4ccc5c(c4)C(=O)N(*)C5=O)cc3)CCCCC2)cc1 (repeat unit) — lower, 96.00 °C
- *c1ccc(OC(=O)c2ccc([Si](c3ccccc3)(c3ccccc3)c3ccc(C(=O)Oc4ccc(C5(*)OC(=O)c6ccccc65)cc4)cc3)cc2)cc1 (repeat unit) — higher, 250.00 °C
- *c1cccc(P(C)(=O)c2cccc(N3C(=O)c4ccc(NC(=O)OCCOc5ccc(C(c6ccc(OCCOC(=O)Nc7ccc8c(c7)C(=O)N(*)C8=O)cc6)(C(F)(F)F)C(F)(F)F)cc5)cc4C3=O)c2)c1 (repeat unit) — higher, 204.00 °C
- *CCCCCC(=O)Nc1ccc(NC(=O)CCCCCN2C(=O)c3ccc(C(=O)c4ccc5c(c4)C(=O)N(*)C5=O)cc3C2=O)cc1 (repeat unit) — higher, 200.00 °C
- *Oc1cc(C(C)(C)C)c(Oc2ccc(C(=O)Nc3ccc(C(c4ccc(NC(=O)c5ccc(*)cc5)cc4)(C(F)(F)F)C(F)(F)F)cc3)cc2)cc1C(C)(C)C (repeat unit) — higher, 268.00 °C
- *Nc1ccc(NC(=O)c2cccc(C(*)=O)c2)cc1 (repeat unit) — higher, 295.00 °C
- *c1ccc(Oc2ccc(S(=O)(=O)c3ccc(Oc4ccc(N5C(=O)c6ccc(S(=O)(=O)c7ccc8c(c7)C(=O)N(*)C8=O)cc6C5=O)cc4)cc3)cc2)cc1 (repeat unit) — higher, 274.00 °C
- *Oc1ccc(OC(=O)c2cc(OCCCc3ccccc3)c(C(*)=O)cc2OCCCc2ccccc2)cc1C (repeat unit) — lower, 91.00 °C
- *Oc1ccc(C(C)(CC(C)C)c2ccc(OC(*)=S)cc2)cc1 (repeat unit) — lower, 128.00 °C
- *c1ccc2c(c1)C(=O)N(C1CCC(N3C(=O)c4ccc(C(*)(C(F)(F)F)C(F)(F)F)cc4C3=O)CC1)C2=O (repeat unit) — higher, 346.50 °C
- *CCC1C(=O)N(C)C(=O)C1* (repeat unit) — lower, 141.20 °C
- *Oc1ccc(Oc2ccc(NC(=O)c3cccc(C(=O)Nc4ccc(*)cc4)c3)cc2)cc1C(C)(C)C (repeat unit) — higher, 208.00 °C
- *Nc1cc(NC(=O)c2cc(OCCN(C)c3ccc(S(=O)(=O)C(F)(F)C(F)(F)C(F)(F)C(F)(F)C(F)(F)C(F)(F)C(F)(F)C(F)(F)F)cc3)cc(C(*)=O)c2)cc(C(=O)OCCN(C)c2ccc(C#N)cc2)c1 (repeat unit) — higher, 157.00 °C
- */C=C/c1sc(-c2ccc(-c3ccc(-c4ccc(-c5sc(/C=C/C6=CC(=C(C#N)C#N)C=C(*)O6)c(CCCCCC)c5CCCCCC)s4)s3)s2)c(CCCCCC)c1CCCCCC (repeat unit) — lower, 134.00 °C
- *CC(*)(C)C(=O)Oc1ccc(-c2nnc(-c3ccc(C(C)(C)C)cc3)o2)cc1 (repeat unit) — higher, 156.00 °C
- *C(=O)Nc1ccc(Oc2ccc(-c3ccc(Oc4ccc(NC(=O)c5ccc6c(c5)C(=O)N(c5ccc(Oc7ccccc7-c7ccccc7Oc7ccc(N8C(=O)c9ccc(*)cc9C8=O)cc7)cc5)C6=O)cc4)cc3)cc2)cc1 (repeat unit) — higher, 254.00 °C
- *CCCCCCOC(=O)OCCCCCCOC(=O)OCCCCCCOc1ccc(C(=O)c2ccc(O*)cc2)cc1 (repeat unit) — lower, -0.30 °C
- *CC(O)CCCCC(O)CN(*)c1ccc(N(C)C)cc1 (repeat unit) — lower, 72.00 °C
- *c1cc(CCCCCCCCCCCC)c(*)s1 (repeat unit) — lower, -24.2 ± 8.1 °C
- *CCCCCCOC(=O)OCCCOC(=O)OCCCCCCOc1ccc(C(=O)c2ccc(O*)cc2)cc1 (repeat unit) — lower, 16.00 °C
- *c1ccc(Oc2ccc(Oc3ccc(Oc4ccc(-c5cnc6cc(-c7ccc8nc(*)cnc8c7)ccc6n5)cc4)cc3)cc2)cc1 (repeat unit) — lower, 133.00 °C
- *CCN(CCOC(=O)c1ccc(C(=O)O*)c(OCCC)c1)c1ccc(-c2nc3ccc([N+](=O)[O-])cc3o2)cc1 (repeat unit) — lower, 119.00 °C
- *CC(F)(F)C1(F)CC(CC(O)(C(F)(F)F)C(F)(F)F)CC1* (repeat unit) — lower, 98.00 °C
- *Oc1ccc2ccc(Oc3ccc(C(=O)Nc4cccc(Oc5ccc(NC(=O)c6ccc(*)cc6)cc5)c4)cc3)cc2c1 (repeat unit) — higher, 164.00 °C
- *[O][Zn][O]C(=O)c1ccccc1C(=O)OCCCCCOC(=O)NCCCCCCNC(=O)OCCCCCOC(=O)c1ccccc1C(*)=O (repeat unit) — lower, -4.30 °C
- *c1ccc(Oc2ccc(Oc3ccc(N4C(=O)C5CCC(C6CCC7C(=O)N(*)C(=O)C7C6)CC5C4=O)cc3)cc2)cc1 (repeat unit) — higher, 238.00 °C
- *CC(*)(C)C(=O)OC1CCCC1 (repeat unit) — lower, 75.00 °C
- *c1ccc(Cc2ccc(N3C(=O)c4ccc(Oc5ccc6c(c5)C(=O)N(*)C6=O)cc4C3=O)cc2)cc1 (repeat unit) — higher, 271.00 °C
- *C(=O)Oc1ccc(C2(c3ccc(OC(=O)c4ccc5c(c4)C(=O)N(c4ccc(-c6ccc(N7C(=O)c8ccc(*)cc8C7=O)cc6C)c(C)c4)C5=O)cc3)CCC(C(C)(C)C)CC2)cc1 (repeat unit) — higher, 217.00 °C
- *OC(F)(F)COC(=O)c1cccc(C(=O)OCC(*)(F)F)c1 (repeat unit) — lower, 28.00 °C
- *C(=O)OCCCCCCCCCCCCOC(=O)c1ccc2c(c1)C(=O)N(c1ccc(Oc3ccc(N4C(=O)c5ccc(*)cc5C4=O)cc3)cc1)C2=O (repeat unit) — lower, 105.00 °C
- *C(F)(F)C1(F)C(F)(F)C(*)(F)C(F)(F)C1(F)F (repeat unit) [Perfluoropolymer 3] — lower, 117 ± 0.6 °C
- *c1cccc(-c2nc3ccc(-c4ccc5nc(*)[nH]c5c4)cc3[nH]2)c1 (repeat unit) — higher, 420.00 °C
- *c1ccc(Oc2ccc(N3C(=O)c4cccc(Oc5ccc(C(C)(C)c6ccc(Oc7cccc8c7C(=O)N(*)C8=O)cc6)cc5)c4C3=O)cc2)cc1 (repeat unit) — higher, 235.00 °C
- *c1ccc(OCCCCOc2ccc(-c3nc4ccc(-c5ccc6nc(*)c(-c7ccccc7)nc6c5)cc4nc3-c3ccccc3)cc2)cc1 (repeat unit) — higher, 240.00 °C
- *Oc1ccc(N(c2ccccc2)c2ccc(-c3ccc(N(c4ccccc4)c4ccc(*)cc4)cc3)cc2)cc1 (repeat unit) — higher, 218.00 °C
- *O[Si](C)(C)O[Si](*)(C)CCCCOc1ccc(-c2ccc(C#N)cc2)cc1 (repeat unit) — lower, -5.50 °C
- *CC(O)CN(Cc1ccccc1)CC(O)COc1ccc(C(C)(C)c2ccc(O*)cc2)cc1 (repeat unit) — lower, 94.2 °C
- *CC(*)(C)C(=O)OCc1ccc2c(c1)c1ccccc1n2CCCCCCCCCCCCCCCC (repeat unit) — lower, 23.00 °C
- *CC(*)NC=O (repeat unit) — lower, 150.00 °C
- *CCN(CCOC(=O)/C=C/c1ccc(/C=C/C(=O)O*)cc1)c1ccc(/N=N/c2ccc([N+](=O)[O-])cc2)cc1 (repeat unit) — lower, 120.00 °C
- *C(=O)Nc1ccc(Oc2ccc(C3(c4ccc(Oc5ccc(NC(=O)c6ccc7c(c6)C(=O)N(c6ccc(Oc8ccc(C9(c%10ccc(Oc%11ccc(N%12C(=O)c%13ccc(*)cc%13C%12=O)cc%11)cc%10)NC(=O)c%10ccccc%109)cc8)cc6)C7=O)cc5)cc4)NC(=O)c4ccccc43)cc2)cc1 (repeat unit) — higher, 330.00 °C
- *C[Si](*)(CCC)CCC (repeat unit) — lower, -41.00 °C
- *Oc1cc(OC(=O)c2ccc(OC)cc2)c(OC(=O)CCCC(*)=O)cc1OC(=O)c1ccc(OC)cc1 (repeat unit) — lower, 88.00 °C
- *CC(*)OC(C)C (repeat unit) [Poly(vinyl isopropyl ether) ] — lower, -4 ± 2.3 °C
- *CC(O)CN(C)S(=O)(=O)c1cccc(S(=O)(=O)N(C)CC(O)COc2ccc(O*)cc2)c1 (repeat unit) — lower, 66.00 °C
- *Oc1ccc(C(C)(C)c2ccc(OC(=O)c3ccc(OCCCCCCCCCCOc4ccc(C(*)=O)cc4)cc3)cc2)cc1 (repeat unit) — lower, 77.00 °C
- *c1ccc(Oc2ccc(P(=O)(c3ccccc3)c3ccc(Oc4ccc(-c5nc(-c6ccccc6)[nH]c5*)cc4)cc3)cc2)cc1 (repeat unit) — higher, 318.00 °C
- *Oc1ccc(C(=O)c2ccc(Oc3ccc(C(=O)c4c(C(=O)c5ccc(*)cc5)c(-c5ccccc5)c(-c5ccc6ccccc6c5)c(-c5ccc6ccccc6c5)c4-c4ccccc4)cc3)cc2)cc1 (repeat unit) — higher, 290.00 °C
- *Oc1ccc(S(=O)(=O)c2ccc(Oc3ccc(Cc4ccc(*)cc4)cc3)cc2)cc1 (repeat unit) — higher, 189.6 °C
- *Oc1cc(OCCOC)c(OC(=O)c2ccc(C(*)=O)cc2-c2ccccc2)cc1OCCOC (repeat unit) — lower, 92.00 °C
- *c1ccc(C(c2ccccc2)(c2ccc(N3C(=O)c4ccc(Oc5ccc6c(c5)C(=O)N(*)C6=O)cc4C3=O)cc2)C(F)(F)F)cc1 (repeat unit) — higher, 293.00 °C
- *CC(*)(C#N)C(=O)OC(C)C (repeat unit) — lower, 66.00 °C
